# Test results from ChEMBL document CHEMBL1154297, “Inhibitor profiling of the Pseudomonas aeruginosa virulence factor LasB using N-alpha mercaptoamide template-based inhibitors” (Bioorg Med Chem Lett, 2009).
# Target: Elastase (Pseudomonas aeruginosa (strain ATCC 15692 / PAO1 / 1C / PRS 101 / LMG12228), UniProt P14756)
# Assay: Inhibition of Pseudomonas aeruginosa LasB by fluorimetric assay in buffer of pH 7.2
# Conditions: not given; call rule not given here
# Sequence of Elastase (P14756 whole entry): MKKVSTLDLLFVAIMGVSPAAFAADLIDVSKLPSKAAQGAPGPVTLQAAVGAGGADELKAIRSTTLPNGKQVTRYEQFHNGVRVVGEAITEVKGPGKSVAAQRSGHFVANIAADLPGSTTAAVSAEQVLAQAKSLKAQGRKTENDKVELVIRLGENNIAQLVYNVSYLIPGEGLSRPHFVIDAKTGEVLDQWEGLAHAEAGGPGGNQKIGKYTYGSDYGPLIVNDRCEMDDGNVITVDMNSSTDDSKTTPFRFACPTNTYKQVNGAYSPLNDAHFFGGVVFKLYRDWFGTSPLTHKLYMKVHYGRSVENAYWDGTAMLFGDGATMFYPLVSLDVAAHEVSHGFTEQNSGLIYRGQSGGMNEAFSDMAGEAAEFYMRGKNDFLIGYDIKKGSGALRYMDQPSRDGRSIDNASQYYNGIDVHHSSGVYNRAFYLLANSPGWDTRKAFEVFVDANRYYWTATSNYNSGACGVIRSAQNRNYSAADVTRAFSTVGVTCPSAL
row,SMILES,Ki
1,C[C@H](NC(=O)CS)C(=O)N[C@@H](Cc1ccccc1)C(N)=O,Not Active
2,CC(C)[C@H](NC(=O)CS)C(=O)N[C@@H](Cc1c[nH]c2ccccc12)C(N)=O,Not Active
3,NC(=O)[C@H](CC(=O)O)NC(=O)[C@H](Cc1ccccc1)NC(=O)CS,Not Active
4,NC(=O)[C@H](CC(=O)O)NC(=O)[C@H](Cc1c[nH]cn1)NC(=O)CS,Not Active
5,CC[C@@H](C)[C@H](NC(=O)CS)C(=O)N[C@@H](CCCNC(=N)N)C(N)=O,Not Active
6,CC(C)[C@H](NC(=O)[C@H](CC(=O)O)NC(=O)CS)C(N)=O,Not Active
7,NC(=O)C[C@H](NC(=O)CS)C(=O)N[C@@H](CC(=O)O)C(N)=O,Not Active
8,NCCCC[C@H](NC(=O)CS)C(=O)N[C@@H](Cc1c[nH]c2ccccc12)C(N)=O,Not Active
9,NC(=O)[C@H](Cc1ccccc1)NC(=O)[C@@H]1CCCN1C(=O)CS,Not Active
10,CC(C)[C@H](NC(=O)[C@H](CCCNC(=N)N)NC(=O)CS)C(N)=O,Not Active

# Same assay, conditions: read-out: Ki
row,SMILES,Ki [µM]
1,CC(C)[C@H](NC(=O)[C@H](CO)NC(=O)CS)C(N)=O,229
2,NCCCC[C@H](NC(=O)[C@H](CCCCN)NC(=O)CS)C(N)=O,433
3,NC(=O)[C@H](Cc1ccccc1)NC(=O)[C@H](CO)NC(=O)CS,75
4,CC(C)[C@H](NC(=O)CS)C(=O)N[C@@H](CCCN=C(N)N)C(N)=O,69
5,CC(C)C[C@H](NC(=O)CS)C(=O)N[C@@H](CC(=O)O)C(N)=O,587
6,CC(C)[C@H](NC(=O)[C@H](Cc1c[nH]cn1)NC(=O)CS)C(N)=O,47
7,NCCCC[C@H](NC(=O)[C@H](CS)NC(=O)CS)C(N)=O,274
8,NC(=O)[C@H](Cc1c[nH]c2ccccc12)NC(=O)[C@@H]1CCCN1C(=O)CS,562
9,C[C@H](NC(=O)CS)C(=O)N[C@@H](CC(=O)O)C(N)=O,316
10,NCCCC[C@H](NC(=O)[C@H](Cc1c[nH]c2ccccc12)NC(=O)CS)C(N)=O,10
11,NC(=O)[C@H](Cc1ccccc1)NC(=O)[C@H](Cc1c[nH]c2ccccc12)NC(=O)CS,1.1
12,NC(=O)[C@H](Cc1ccccc1)NC(=O)[C@H](CS)NC(=O)CS,131
13,CC(C)C[C@H](NC(=O)CS)C(=O)N[C@@H](Cc1ccccc1)C(N)=O,113
14,NC(=O)[C@H](Cc1c[nH]c2ccccc12)NC(=O)[C@H](CS)NC(=O)CS,108
15,C[C@H](NC(=O)CS)C(=O)N[C@@H](CCCNC(=N)N)C(N)=O,115
16,NC(=O)[C@H](Cc1c[nH]c2ccccc12)NC(=O)[C@H](Cc1cnc[nH]1)NC(=O)CS,18
17,N=C(N)NCCC[C@H](NC(=O)[C@@H]1CCCN1C(=O)CS)C(N)=O,56
18,NC(=O)[C@H](CC(=O)O)NC(=O)[C@H](Cc1c[nH]c2ccccc12)NC(=O)CS,38
19,NC(=O)[C@H](CCCN=C(N)N)NC(=O)[C@H](Cc1c[nH]c2ccccc12)NC(=O)CS,25
20,CC(C)C[C@H](NC(=O)[C@@H]1CCCN1C(=O)CS)C(N)=O,246
21,CC(C)C[C@H](NC(=O)[C@H](CC(N)=O)NC(=O)CS)C(N)=O,508
22,CC(C)[C@H](NC(=O)[C@H](Cc1ccccc1)NC(=O)CS)C(N)=O,11
23,NCCCC[C@H](NC(=O)[C@H](CCC(=O)O)NC(=O)CS)C(N)=O,553
24,NCCCC[C@H](NC(=O)[C@H](CC(N)=O)NC(=O)CS)C(N)=O,289
25,CSCC[C@H](NC(=O)CS)C(=O)N[C@@H](Cc1c[nH]c2ccccc12)C(N)=O,204
26,NC(=O)[C@H](Cc1ccccc1)NC(=O)[C@H](CCCN=C(N)N)NC(=O)CS,224
27,CC(C)C[C@H](NC(=O)[C@H](Cc1c[nH]cn1)NC(=O)CS)C(N)=O,306
28,CC(C)[C@H](NC(=O)CS)C(=O)N[C@@H](CCCCN)C(N)=O,22
